In US20190082696A1, “METHOD FOR CONTROLLING PESTS OF PLANTS” (BASF SE, priority 2016, published 2019):

Test system: green peach aphid (Myzus persicae)
Assay: Biological activity of mixtures: green peach aphid systemic test with Colby analysis
Format: in vivo
Conditions: 3 days
Excerpt: Synergism can be described as an interaction where the combined effect of two or more compounds is greater than the sum of the individual effects of each of the compounds. The presence of a synergistic effect in terms of percent control, between two mixing partners (X and Y) can be calculated using the Colby equation (Colby, S. R., 1967, Calculating Synergistic and Antagonistic Responses in Herbicide Combinations, Weeds, 15, 20-22):
When the observed combined control effect is greater than the expected combined control effect (E), then the combined effect is synergistic.
The analysis of synergism or antagonism between the mixtures or compositions was determined using Colby's equation.
For evaluating control of green peach aphid (Myzus persicae) through systemic means the test unit consisted of 96-well-microtiter plates containing liquid artificial diet under an artificial membrane.
The compounds or mixtures were formulated using a solution containing 75% water and 25% DMSO. Different concentrations of formulated compounds or mixtures were pipetted into the aphid diet, using a custom built pipetter, at two replications. […]
After application, 5-8 adult aphids were placed on the artificial membrane inside the microtiter plate wells. […] Aphid mortality and fecundity was then visually assessed.

SMILES | Average Control % (10 ppm) [%] | Average Control % (0.4 ppm) [%]
CC1(C)C(C=C(Cl)Cl)C1C(=O)OC(C#N)c1cccc(Oc2ccccc2)c1 (centres unmarked) [Alphacypermethrin] | 0 | –
CCC(=O)N1CC2(C1)OCc1cc(C3=NOC(c4cc(Cl)c(F)c(Cl)c4)(C(F)(F)F)C3)ccc12 (centres unmarked) [Compound I-1] | – | 0
